Measurements published in BindingDB's records for doi:10.1021/jm400639z (Duquesne University, 2013).

Columns and labels:
[1] = Inhibition of p-gp overexpressed in human SKOV3/M6-6 isogenic cells after 48 hrs by sulforhodamine B assay
[2] = Inhibition of beta3 tubulin overexpressed in human HeLa cells after 48 hrs by SRB assay

IC50 [1] | IC50 [2] | SMILES
0.016 µM | 0.0082 µM | COc1ccc(N(C)c2nc(C)nc3c2CCC3)cc1
0.044 µM | 0.024 µM | COc1ccc(N(C)c2nc(C)nc3c2CC(C)C3)cc1 (stereo not given)

SMILES | IC50 [1] | IC50 [2]
COc1ccc(/C=C\c2cc(OC)c(OC)c(OC)c2)cc1O [combretastin A4] | 0.0066 µM | 
